Structures are written as SMILES. Where two headings read alike, the source gives them in different places. Starred links: 1 amine or outer side, 2 acyl side, 3 side chain; linkers in the order of their positions; H or OH if unused. Positions of bridges follow the written chain, without caps; N, C: chain ends. Non-standard residues stand in square brackets, D forms with d. Residues, ends and D or L forms follow the SMILES beside them. Chains are numbered I, II in the order given. Actinocin(9to1) = Cc1c2oc3c(C)ccc(C(=O)[*:1])c3nc-2c(C(=O)[*:2])c(N)c1=O; NMeV = CN[C@H](C(=O)O)C(C)C; Sar = CNCC(=O)O

As a reminder, the IC50 is the concentration that gives 50% inhibition.

One experiment addresses T1, MLK-3 (Homo sapiens, UniProt Q16584).
T1 construct: A full length cDNA of human MLK-3, MLK-2, or mouse DLK; expressed in transfected cells; host or cells: Cos7
The experiment in a line: JNK activity (immunoprecipitation/kinase assay) in Cos7 cells overexpressing MLK-3 and HA-JNK1. The experiment is classed as cell-based. On the procedure:
Cos7 cells were plated at 80% confluency and transfected with 2 ug each of cDNA constructs using lipofectamine as recommended by the provider (Gibco BRL, Gaithersburg, MD). A full length cDNA of human MLK-3, MLK-2, or mouse DLK or a partial human MLK-1 as described above, and a full length Hemagluttinin A-tagged human JNK1, kindly provided by J. Silvio Gutkind (NIH, Bethesda, MD), were subcloned into the pcDNA3 vector (Invitrogen, San Diego, CA). […] JNK activity from the lysate was assayed by an immunoprecipitation/kinase assay as described below.
Lysate from Cos 7 cells was measured for protein concentration using the Micro BCA kit from Pierce (Rockford, IL) and equal amounts of protein were immunoprecipitated with the HA antibody for 1 hr at 4°C. Immunoprecipitates were pelleted by centrifugation in a microfuge centrifuge for 20 sec, resuspended in Triton buffer, washed by centrifugation 2 more times, followed by a final wash in Kinase buffer (20 mM Hepes pH 7.4,20 mM MgCl2, 2 mM dithiothreitol, 0.1 mM sodium vanadate). The immunoprecipitate was resuspended in kinase buffer containing 1 µM ATP and 5 µCi [γ-^32P]ATP and substrate (1 µg/sample of AP-1 ) and incubated for 15 min at 30°C. […] Samples were heated to 80°C for 5 min and loaded onto 10% SDS-polyacrylamide gels. Proteins were separated by electrophoresis. The gel was dried and quantitation of radioactivity in the AP-1 substrate was performed on a Molecular Dynamics Phosphorimager (Sunnyvale, Ca.).
To determine whether inhibition of the JNK pathway regulated by these kinases correlated with neurotrophic compounds, we evaluated the effect of compounds on JNK activity in Cos7 cells overexpressing HA-JNK and MLK3. After a 48 hr transfection period, the cells were incubated with compounds at 500 nM for 2hr followed by cellular lysis. Lysate was immunoprecipitated and kinase activity measured as previously described. […]

Another experiment relates to TNF-α. The experiment in a line: Induction of TNF-α by LPS in THP-1 cells (ELISA). The following applies: for IC50: Homo sapiens, THP-1, LPS 2 µg/ml, serum-free medium, read-out: THP-1 Cells TNF-α IC50; for TNF-α in the medium: inhibitor 30 min prior to LPS, medium collected 3 hr after LPS. The experiment is classed as cell-based. As to the method:
THP-1 cells were grown in RPMI 1640 medium supplemented with 10% fetal bovine serum. LPS (E.coli serotype 0111.B4, TCA extracted) was purchased from Sigma and dissolved in PBS. ELISA kits for assaying IL-1 and TNF-α were purchased from Boerhinger-Mannheim and assays on THP-1 culture medium were performed as directed by the manufacturer. Standard curves according to directions were obtained with each assay.
Experiments were performed in 12 well culture plates with either 1 or 2 ml of THP-1 cells at 4 X 10^5 cells/ml. IL-1 and TNF-α were induced by the addition of LPS to the culture medium and the medium collected at various times thereafter for cytokine assay. Cells were removed by centrifugation and the supernatants frozen at -70°C until assay. To minimize costs experiments were performed in duplicate cultures and the duplicate supernatants were pooled after centrifugation. Each pooled supernatant was assayed in duplicate. Stock solutions of indolo- and fused pyrrolocarbazoles in 100% DMSO were diluted to the desired concentrations in either medium containing 10% fetal bovine serum or in medium containing 0.5 mg/ml BSA. Unless otherwise stated, compounds were added to the THP-1 cells 1 hr prior to the addition of LPS.

Another experiment relates to JNK. The experiment in a line: JNK activity immunoprecipitated from THP-1 cells. The experiment is classed as cell-based. The following applies: Homo sapiens, read-out: THP-1 Cells JNK % inh. 500 nM. On the procedure: Assays for JNK activity were performed after immunoprecipitating the JNK protein from an extract of lysed THP-1 cells. Pelleted THP-1 cells were lysed on ice for 15 min in 500 µl of Frac buffer (10 mM Tris-Hcl, pH 7.5,50 mM NaCl, 30 µM sodium pyrophosphate, 1 mg/ml BSA, 1% Triton-X-100). The extract was centrifuged for 10 min at 14K and 5 µl of JNK antibody (Santa Cruz) was added to the supernatant. The extract was rotated for 60 min at 4°C, 75 µl of washed protein A Sepharose (20% w/v in Frac) added and the extract rotated another 30 min to bind the antibody complex to the protein A Sepharose. The protein A Sepharose was washed twice with Frac buffer, once with 20 mM Hepes, pH 7.6, 20 mM MgCl2, 2 mM DTT, then incubated for 15 min at 30° C in 30 µl of kinase buffer (20 mM hepes, 20 mM MgCl2, 2 MM DTT, 1 µg recombinant c-jun, and 2 µM ATP-γ-^32P, 2 µCi. The reaction was terminated by the addition of 10 µl of 4X SDS gel loading buffer, heated for 3 min at 80° C, and the proteins were analyzed on a 10% SDS gel. The gel was dried, exposed to a Phosphorimager plate, and the radioactive bands were analyzed on a Phosphorimager.

The test system of another experiment is MKK4. The experiment in a line: MPTP model: phosphorylated MKK4 in the substantia nigra (immunoblot, ELISA). The experiment is classed as in vivo, mice. The following applies: pretreatment; Compound III-3 1 mg/kg (Fig. 22c). On the procedure: MPTP was administered at a dose (40 mg/kg) that produces loss of striatal dopaminergic terminals and cell bodies in the substantia nigra. Tyrosine hydroxylase was used as a marker for dopamenergic nerve terminals in the substantia nigra. […] Since Compound III-3 is a known inhibitor of MLK3, activation of a downstream substrate of MLK3 was measured in MPTP- treated mice. Levels of phosphorylated MKK4 were measured using a phospho-MKK4 specific antibody (New England Biolabs, Beverly, MA) that recognizes the monophosphorylated form of MKK4 by either immunoblot (Fig. 22b) or ELISA (Fig. 22c). MPTP administration elevated levels of phosphorylated MKK4 in the substantia nigra by up to 5 fold over control levels (Fig. 22b). Peak elevations occurred 4 hrs after administration ofMPTP and coincided with peak CNS levels of MPP^+.
In general terms: Immunoblotting shows a protein as a band on a membrane.

Where [1] appears, read: COS-7, 500 nM for 2hr, control is JNK activity in the presence of DMSO, read-out: % Inhibition of JNK Activity (average) MLK3 in Cos7 cells.
The mark [2] stands for this setting: COS-7, read-out: Overexpressed MLK3 in Cos 7 Cells JNK % inh. 500 nM.

T1 sequence (Q16584 whole entry): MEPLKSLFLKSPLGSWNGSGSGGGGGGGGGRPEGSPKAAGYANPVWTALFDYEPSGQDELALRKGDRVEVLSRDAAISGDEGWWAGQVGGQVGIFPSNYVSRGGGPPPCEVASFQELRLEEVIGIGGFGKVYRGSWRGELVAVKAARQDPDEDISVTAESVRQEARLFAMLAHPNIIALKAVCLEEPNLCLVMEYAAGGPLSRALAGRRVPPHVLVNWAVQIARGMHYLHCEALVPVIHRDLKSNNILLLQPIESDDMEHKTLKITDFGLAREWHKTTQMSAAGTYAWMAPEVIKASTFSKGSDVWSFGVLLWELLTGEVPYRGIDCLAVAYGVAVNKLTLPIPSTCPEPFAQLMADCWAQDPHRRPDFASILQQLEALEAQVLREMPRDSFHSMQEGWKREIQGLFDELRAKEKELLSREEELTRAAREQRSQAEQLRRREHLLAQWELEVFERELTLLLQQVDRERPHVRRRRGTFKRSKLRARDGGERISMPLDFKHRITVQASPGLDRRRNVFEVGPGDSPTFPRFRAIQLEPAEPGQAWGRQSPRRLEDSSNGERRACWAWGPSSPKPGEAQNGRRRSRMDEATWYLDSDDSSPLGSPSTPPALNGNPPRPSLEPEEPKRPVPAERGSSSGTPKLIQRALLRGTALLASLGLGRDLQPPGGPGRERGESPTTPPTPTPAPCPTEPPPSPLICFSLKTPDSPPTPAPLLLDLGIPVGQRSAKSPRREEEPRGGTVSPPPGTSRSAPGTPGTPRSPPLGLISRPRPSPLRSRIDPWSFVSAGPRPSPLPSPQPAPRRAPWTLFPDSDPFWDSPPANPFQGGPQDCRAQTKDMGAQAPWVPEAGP

As for `CCNC(=O)Nc1ccc2c(c1)c1c3c(c4c5cc(CCc6ccccn6)ccc5n5c4c1n2C1CC(O)(C(=O)OC)C5(C)O1)CNC3=O` (stereo not drawn) [III-1], the inhibition at 0.5 µM at MLK-3 (setting [1]) was 84%; on MLK-3 (setting [2]), 83.8%; in the experiment with JNK, 93.5%. Also, the IC50 in the experiment with TNF-α is 49.5 nM.
With `C#CCN(C)[C@H](C)Cc1ccccc1` [Compound 1-deprenyl, 1-deprenyl, reference compound], the “MPTP-mediated MKK4 phosphorylation” value in the experiment on MKK4 is “attenuated”.
Regarding `COC(=O)C1(O)CC2OC1(C)n1c3ccccc3c3c4c(c5c6ccccc6n2c5c31)C(=O)NC4` (stereo not drawn) [III-9], the inhibition at 0.5 µM on MLK-3 (setting [1]) was determined as 98.5%.
In the case of `Cc1c2oc3c(C)ccc(C(=O)N[C@@H]4C(=O)N[C@H](C(C)C)C(=O)N5CCC[C@H]5C(=O)N(C)CC(=O)N(C)[C@@H](C(C)C)C(=O)O[C@@H]4C)c3nc-2c(C(=O)N[C@@H]2C(=O)N[C@H](C(C)C)C(=O)N3CCC[C@H]3C(=O)N(C)CC(=O)N(C)[C@@H](C(C)C)C(=O)O[C@@H]2C)c(N)c1=O` [Actinomycin D, reference compound] (I: T[dV]P[Sar][NMeV] / II: T[dV]P[Sar][NMeV]; ester I:1-I:C, II:1-II:C; linker I:N-II:N via Actinocin(9to1)), the “TNF-α in the medium” value with TNF-α is on record as “no TNF-α was found”.
Take `C[C@@H]1C[C@@H]([C@H](O)CC2CC(=O)NC(=O)C2)C(=O)[C@@H](C)C1` [cycloheximide, reference compound]: the “TNF-α in the medium” value with TNF-α is reported as “no TNF-α was found”.
Turning to `COC(=O)C1(O)CC2OC1(C)n1c3ccc(CCSC)cc3c3c4c(c5c6cc(CCSC)ccc6n2c5c31)C(=O)NC4` (stereo not drawn) [III-10], the inhibition at 0.5 µM on MLK-3 (setting [1]) turned out to be 78%; at MLK-3 (setting [2]), 78%; in the experiment on JNK, 48%. The IC50 in the experiment on TNF-α came out at 4300 nM.
On to `CCOCOCc1ccc2c(c1)c1c3c(c4c5cc(COCOCC)ccc5n5c4c1n2C1CC(O)(C(=O)OC)C5(C)O1)CNC3=O` (stereo not drawn) [III-2], for which the inhibition at 0.5 µM on MLK-3 (setting [1]) turned out to be 96%.
For the compound `CCCCCOC(=O)C1(O)CC2OC1(C)n1c3ccccc3c3c4c(c5c6ccccc6n2c5c31)C(=O)NC4` (stereo not drawn) [III-4], the inhibition at 0.5 µM on MLK-3 (setting [1]) came out at 66%; at MLK-3 (setting [2]) it was 66%; in the experiment on JNK it was 81%. In addition, the 50% inhibitory concentration (IC50) in the experiment with TNF-α came to 462 nM.
On to `COC(=O)C1(OC)CC2OC1(C)n1c3ccccc3c3c4c(c5c6ccccc6n2c5c31)C(=O)NC4` (stereo not drawn) [III-11], for which the inhibition at 0.5 µM was found to be 92.5% on MLK-3 (COS-7, 500 nM, read-out: Overexpressed MLK3 in Cos 7 Cells JNK % inh. 500 nM); 92.5% at MLK-3 (setting [1]); 51% in the experiment on JNK. Further, the IC50 with TNF-α came to 686 nM.

(Values after patent EP1105728B1, “MODULATING MULTIPLE LINEAGE KINASE PROTEINS” (CEPHALON, INC., priority 1998, dated 2000).)
